Eight compounds from ChEMBL document CHEMBL2086230, “Comparison of the cytotoxic effects of enantiopure PPAPs, including nemorosone and clusianone” (Bioorg Med Chem Lett, 2012) can be followed below.

What all share (format): functional, cell-based
In one assay the test system is MIA PaCa-2. The assay can be described thus: Cytotoxicity against human MIAPaCa2 cells after 72 hrs by resazurin assay. On the technique in general: The colour change of resazurin is a common sign of viable cells or microbes.
For another assay, the system named is HeLa. Briefly: Cytotoxicity against human HeLa cells after 72 hrs by resazurin assay.
For the next assay, the system named is MCF7. The assay can be described thus: Cytotoxicity against human MCF7 cells after 72 hrs by resazurin assay.

Consider `CC(C)=CCC1=C(O)C2(CC=C(C)C)CC(CC=C(C)C)C(C)(C)C(C(=O)c3ccccc3)(C1=O)C2=O` (single isomer, unassigned; (+)), for which the 50% inhibitory concentration (IC50) in the assay with MIA PaCa-2 (Homo sapiens, MIA PaCa-2, 72 h) came to 3.4 µM; with HeLa (Homo sapiens, HeLa, 72 h) it was 3.9 µM; in the assay on MCF7 (Homo sapiens, MCF7, 72 h), 6.5 µM.
For `CC(C)=CC[C@H]1C[C@]2(CC=C(C)C)C(=O)[C@@](CC=C(C)C)(C(=O)C(C(=O)c3ccccc3)=C2O)C1(C)C` (stereo in doubt; (+)-4) [6-EPI-CLUSIANONE] the same measures were 5.2 µM, 5.8 µM and 8.3 µM.
Consider `CC(C)=CCC1=C(O)[C@@]2(C(=O)c3ccccc3)C(=O)[C@](CC=C(C)C)(C[C@H](CC=C(C)C)C2(C)C)C1=O`, for which the IC50 in the assay on MIA PaCa-2 (Homo sapiens, MIA PaCa-2, 72 h) stood at 2.4 µM; in the assay with HeLa (Homo sapiens, HeLa, 72 h) it was 2.9 µM; in the assay on MCF7 (Homo sapiens, MCF7, 72 h), 5.2 µM.
Take `CC(C)=CCC1=C(O)C2(C(=O)c3ccccc3)CC(CC=C(C)C)C(C)(C)C(CC=C(C)C)(C1=O)C2=O` (single isomer, unassigned; (+)): the 50% inhibitory concentration (IC50) with MIA PaCa-2 (Homo sapiens, MIA PaCa-2, 72 h) was 11.3 µM; with HeLa (Homo sapiens, HeLa, 72 h) it was 10.1 µM; in the assay with MCF7 (Homo sapiens, MCF7, 72 h), 18.9 µM.
Take `CC(C)=CCC1=C(O)C2(C(=O)c3ccccc3)CC(CC=C(C)C)C(C)(C)C(CC=C(C)C)(C1=O)C2=O` (stereo in doubt; (-)-5): the IC50 in the assay on MIA PaCa-2 (mia paca-2) was 8.6 µM; in the assay with HeLa (hela) it was 10.9 µM; in the assay on MCF7 (mcf7) it was 10.9 µM.
With `CC(C)=CCC1=C(O)C2(CC=C(C)C)CC(CC=C(C)C)C(C)(C)C(C(=O)c3ccccc3)(C1=O)C2=O` (stereo in doubt; (-)-3), the half-maximal inhibitory concentration (IC50) turned out to be 3.5 µM in the assay on MIA PaCa-2 (mia paca-2), 3.4 µM with HeLa (hela) and 8 µM with MCF7 (mcf7).
As for `CC(C)=CC[C@H]1C[C@]2(CC=C(C)C)C(=O)[C@@](CC=C(C)C)(C(=O)C(C(=O)c3ccccc3)=C2O)C1(C)C` (stereo in doubt; (-)-4) [6-EPI-CLUSIANONE], the values for the IC50 in the assay with MIA PaCa-2 (mia paca-2), with HeLa (hela) and in the assay on MCF7 (mcf7) were 3.8 µM, 3 µM and 5.7 µM, respectively.
`Nc1ccn([C@@H]2O[C@H](CO)[C@@H](O)C2(F)F)c(=O)n1` [GEMCITABINE]: the 50% inhibitory concentration (IC50) was 0.06 µM in the assay on MIA PaCa-2 (Homo sapiens, MIA PaCa-2, 72 h); 0.05 µM in the assay on HeLa (Homo sapiens, HeLa, 72 h); 0.06 µM with MCF7 (Homo sapiens, MCF7, 72 h).

Broadly, the IC50 is the midpoint of a concentration-inhibition curve. Lower therefore signals greater potency in that assay.
